pIC50: −log10 of the molar value. Read-outs that look alike come from different tables or passages of the source.

For assay [1], the target named is muscarinic acetylcholine receptors. Kind of assay: Inhibition of specific binding of ^3H-Oxotremorine-M to rat cortex homogenate. The following applies: 1.0 nM ^3H-Oxotremorine, 30 min at 25°C, read-out: ^3H-Oxo-M IC50. The arrangement: species or system male Wistar rats. The source says: The pharmacological properties of the compounds of the invention can be illustrated by determining their capability to inhibit the specific binding of ^3H-Oxotremorine-M (^3H-Oxo). Birdsdall N.J.M., Hulme E.C., and Burgen A.S.V. (1980). "The Character of Muscarinic Receptors in Different Regions of the Rat Brain". Proc. Roy. Soc. London (Series B) 207,1.
^3H-Oxo labels muscarinic receptor in the CNS (with a preference for agonist domains of the receptors). Three different sites are labeled by ^3H-Oxo. […] Using the present experimental conditions only the high and medium affinity sites are determined.
The inhibitory effects of compounds on ^3H-oxo binding reflects the affinity for muscarinic acetylcholine receptors.
All preparations are performed at 0-4°C unless otherwise indicated. Fresh cortex (0.1-1 g) from male Wistar rats (150-250 g) is homogenized for 5-10 s in 10 mL […] Hepes pH: 7.4, with an Ultra-Turrax homogenizer. The homogenizer is rinsed with 10 mL of buffer and the combined suspension centrifuged for 15 min. at 40,000 x g. The pellet is washed three times with buffer. In each step the pellet is homogenized as before in 2 x 10 mL of buffer and centrifuged for 10 min. at 40,000 x g.
The final pellet is homogenized in 20 mM Hepes pH: 7.4 (100 mL per g of original tissue) and used for binding assay. Aliquots of 0.5 mL is added 25 µL of test solution and 25 µL of ^3H-Oxotremorine (1.0 nM, final concentration) mixed and incubated for 30 min. at 25°C. Non-specific binding is determined in triplicate using arecoline (1 µg/mL, final concentration) as the test substance. After incubation samples are added 5 mL of ice-cold buffer and poured directly onto Whatman GF/C glass fiber filters under suction and immediately washed 2 times with 5 mL of ice-cold buffer. The amount of radioactivity on the filters are determined by conventional liquid scintillation counting. Specific binding is total binding minus non specific binding.
Test substances are dissolved in 10 mL water (if necessary heated on a steam-bath for less than 5 min.) at a concentration of 2.2 mg/mL. 25-75% inhibition of specific binding must be obtained before calculation of IC50. The test value will be given as IC50 (the concentration (nM) of the test substance which inhibits the specific binding of ^3H-oxo by 50%). IC50 = (applied test substance concentration) x(Cx/Co-Cx)nM where Co is specific binding in control assays and Cx is the specific binding in the test assay. (The calculations assume normal mass-action kinetics).

The target of assay [2] is T1, muscarinic receptors (M1-site, pirenzepine sensitive site) (Rattus norvegicus, UniProt P08482).
T1 construct: Fresh cortex (0.1-1 9) from male Wistar rats (150-200 g) is homogenized; from tissue; host or cells: rat cerebral cortex membranes
T1 sequence (P08482 1-460): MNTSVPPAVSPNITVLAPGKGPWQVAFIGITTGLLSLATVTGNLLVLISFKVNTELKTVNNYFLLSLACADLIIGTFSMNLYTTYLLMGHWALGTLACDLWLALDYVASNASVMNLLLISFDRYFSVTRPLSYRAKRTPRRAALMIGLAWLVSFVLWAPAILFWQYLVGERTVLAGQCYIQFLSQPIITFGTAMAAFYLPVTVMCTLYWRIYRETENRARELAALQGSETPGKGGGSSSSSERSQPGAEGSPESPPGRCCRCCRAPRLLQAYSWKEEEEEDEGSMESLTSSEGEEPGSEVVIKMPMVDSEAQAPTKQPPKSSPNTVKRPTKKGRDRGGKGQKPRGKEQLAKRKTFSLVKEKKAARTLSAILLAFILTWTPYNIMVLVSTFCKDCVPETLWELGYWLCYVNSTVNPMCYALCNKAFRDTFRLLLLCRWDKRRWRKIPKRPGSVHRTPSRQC
The assay is described as follows: Inhibition of ^3HPRZ (pirenzepine) binding to rat cerebral cortex membranes. Conditions: 1.0 nM ^3HPRZ, 60 min at 20°C; for pIC50: read-out: ^3HPRZ IC50; for IC50: ^3HPRZ IC50,nM. Also on record: species or system male Wistar rats. Here is the method: Furthermore the pharmacological properties of the compounds of the invention can also be illustrated by determining their capability to inhibit ^3HPRZ (pirenzepine, [N-methyl^-3H]) binding to rat cerebral cortex membranes.
Pirenzepine binds selectively to subtype of muscarinic receptors. Historically the type is named the M1-site, whereas pirenzepine sensitive site would be more appropriate. Although selective for M1-sites pirenzepine also interact with M2-sites.
All preparations are performed at 0-4°C unless otherwise indicated. Fresh cortex (0.1-1 9) from male Wistar rats (150-200 g) is homogenized for 5-10 s in 10 mL 20 mM Hepes pH: 7.4, with an Ultra-Turrax homogenizer. The homogenizer is rinsed with 2 x 10 mL of buffer and the combined suspension centrifuged for 15 min. at 40,000 x g. The pellet is washed three times with buffer. In each step the pellet is homogenized as before in 3 x 10 mL of buffer and centrifuged for 10 min. at 40,000 x g.
The final pellet is homogenized in 20 mM Hepes pH: 7.4 (100 mL per g of original tissue) and used for binding assay. Aliquots of 0.5 mL is added 20 µL of test solution and 25 µL of ^3HPRZ (1.0 nM, final conc.), mixed and incubated for 60 min. at 20°C. Non-specific binding is determined in triplicate using atropine (1.0 µg/mL, final conc.) as the test substance. After incubation samples are added 5 mL of ice-cold buffer and poured directly onto Whatman GF/C glass fiber filters under suction and immediately washed 2 times with 5 mL of ice-cold buffer. The amount of radioactivity on the filters are determined by conventional liquid scintillation counting. Specific binding is total binding minus non-specific binding.
Test substances are dissolved in 10 mL water, at a concentration of 0.22 mg/mL. 25-75% inhibition of specific binding must be obtained before calculation of IC50.
The test value will be given as IC50 (the concentration (nM) of the test substance which inhibits the specific binding of ^3HPRZ by 50%). IC50 = (applied test substance concentration) x(Cx/Co-Cx)nM where Co is specific binding in control assays and Cx is the specific binding in the test assay. (The calculations assume normal mass-action kinetics).

As a reminder, the pIC50 is the IC50 on a negative log10 scale, so that one unit is a factor of ten. With `CSc1nsnc1C1CC2CCC1NC2` (stereo not drawn) [Compound 14, EXO 2-Aza-6-(4-methylthio-1,2,5-thiadiaz-3-yl)bicyclo[2.2.2]octane], the negative logarithm of the IC50 (pIC50) in assay [1] was 6.16; in assay [2] it was 6.44.

In the case of `CCCCSc1nsnc1C1CC2CCC1NC2` (stereo not drawn) [Compound 9, ENDO 2-aza-6-(4-butylthio-1,2,5-thiadiaz-3-yl)bicyclo[2.2.2]octane], the pIC50 in assay [1] is 8.70; in assay [2], 8.57.

The term IC50 denotes the concentration that gives 50% inhibition. Consider `N#Cc1ccc(CSc2nsnc2C2CC3CCC2NC3)cc1` (stereo not drawn) [Compound 24, EXO 2-Aza-6-(4-((4-cyanophenyl)methylthio)-1,2,5-thiadiaz-3-yl)-bicyclo[2.2.2]octane], for which, in assay [1], the negative logarithm of the IC50 (pIC50) is 7.22. Further, the IC50 in assay [2] was determined as 91 nM.

On to `CCCOc1nsnc1C1CC2CCC1NC2` (stereo not drawn) [Compound 13, EXO 2-Aza-6-(4-propoxy-1,2,5-thiadiaz-3-yl)bicyclo[2.2.2]octane], for which the negative logarithm of the IC50 (pIC50) in assay [1] was 6.58; in assay [2], 6.76.

`FC(F)(F)CCCSc1nsnc1C1CC2CCC1NC2` (stereo not drawn) [Compound 20, ENDO 2-Aza-6-(4-((4,4,4-trifluorobutyl)thio)-1,2,5-thiadiaz-3-yl)-bicyclo[2.2.2]octane]: in assay [2], the negative-log IC50 (pIC50) was 8.26.

With `FC(F)(F)c1ccc(COc2nsnc2C2CC3CCC2NC3)cc1` (stereo not drawn) [Compound 33, EXO 2-Aza-6-(4-((4-trifluoromethylphenyl)methoxy)-1,2,5-thiadiaz-3-yl)-bicyclo[2.2.2]octane], the negative-log IC50 (pIC50) in assay [2] was 6.56.

Turning to `CCCCCCSc1nsnc1C1CC2CCC1NC2` (stereo not drawn) [Compound 27, EXO 2-Aza-6-(4-hexylthio-1,2,5-thiadiaz-3-yl)bicyclo[2.2.2]octane], the pIC50 in assay [2] was 8.64.

For `CCCCOc1nsnc1C1CC2CCC1NC2` (single isomer, unassigned) [Compound 5, EXO 2-aza-6-(4-butyloxy-1,2,5-thiadiaz-3-yl)bicyclo[2.2.2]octane], the pIC50 was 6.84 in assay [1] and 6.86 in assay [2].

In the case of `CSc1nsnc1C1CC2CCC1NC2` (stereo not drawn) [Compound 19], the pIC50 in assay [1] is 7.74; in assay [2] it was 6.89.

For `CCCCCSc1nsnc1C1CC2CCC1NC2` (stereo not drawn) [Compound 15, ENDO 2-aza-6-(4-thiopentyl-1,2,5-thiadiaz-3-yl)bicyclo[2.2.2]octane], in assay [1], the pIC50 was 8.47. The same compound displayed a 50% inhibitory concentration (IC50) in assay [2] of 5 nM.

Turning to `CCCCCCSc1nsnc1C1CC2CCC1NC2` (stereo not drawn) [Compound 28, EXO 2-Aza-6-(4-hexylthio-1,2,5-thiadiaz-3-yl)bicyclo[2.2.2]octane], the pIC50 in assay [2] is 7.21.

As to `CC(C)CCCSc1nsnc1C1CC2CCC1NC2` (stereo not drawn) [Compound 18, ENDO 2-Aza-6-(4-((4-methylpentyl)thio)-1,2,5-thiadiaz-3-yl)bicyclo[2.2.2]octane], in assay [2], the negative logarithm of the IC50 (pIC50) was 7.89.

Turning to `N#Cc1ccc(CSc2nsnc2C2CC3CCC2NC3)s1` (stereo not drawn) [Compound 26, EXO 2-Aza-6-(4-((5-cyanothien-2-yl)methylthio)-1,2,5-thiadiaz-3-yl)-bicyclo[2.2.2]octane], the negative-log IC50 (pIC50) in assay [2] was 7.70.

On to `CC(C)CCCSc1nsnc1C1CC2CCC1NC2` (stereo not drawn) [Compound 17], for which the negative logarithm of the IC50 (pIC50) in assay [2] is 6.77.

`N#Cc1ccc(CSc2nsnc2C2CC3CCC2NC3)s1` (stereo not drawn) [Compound 25, ENDO 2-Aza-6-(4-((5-cyanothien-2-yl)methylthio)-1,2,5-thiadiaz-3-yl)-bicyclo[2.2.2]octane]: in assay [2], the negative logarithm of the IC50 (pIC50) was 8.21.

As for `CCCCCCOc1nsnc1C1CC2CCC1N(C)C2` (single isomer, unassigned) [Compound 7, ENDO 2-Aza-6-(4-hexyloxy-1,2,5-thiadiaz-3-yl)-2-methylbicyclo[2.2.2]octane], the pIC50 in assay [2] was 7.68.

In the case of `CCCCCCOc1nsnc1C1CC2CCC1N(C)C2` (single isomer, unassigned) [Compound 8, EXO 2-Aza-6-(4-hexyloxy-1,2,5-thiadiaz-3-yl)-2-methylbicyclo[2.2.2]octane], the pIC50 in assay [2] is 7.24.

As for `FC(F)(F)c1ccc(COc2nsnc2C2CC3CCC2NC3)cc1` (stereo not drawn) [Compound 32, EXO 2-Aza-6-(4-((4-trifluoromethylphenyl)methoxy)-1,2,5-thiadiaz-3-yl)-bicyclo[2.2.2]octane], the negative logarithm of the IC50 (pIC50) in assay [2] was 6.61.

For the compound `CCCCCOc1nsnc1C1CC2CCC1NC2` (stereo not drawn) [Compound 30, ENDO 2-aza-6-(4-pentoxy-1,2,5-thiadiaz-3-yl)-bicyclo[2.2.2]octane], the pIC50 in assay [2] is 7.82.

Take `CCCCCOc1nsnc1C1CC2CCC1NC2` (stereo not drawn) [Compound 31, EXO 2-aza-6-(4-pentoxy-1,2,5-thiadiaz-3-yl)bicyclo[2.2.2]octane]: the pIC50 in assay [2] was 7.10.

For `N#Cc1ccc(CSc2nsnc2C2CC3CCC2NC3)cc1` (stereo not drawn) [Compound 23, ENDO 2-Aza-6-(4-((4-cyanophenyl)methylthio)-1,2,5-thiadiaz-3-yl)-bicyclo[2.2.2]octane], in assay [1], the pIC50 is 7.59. For the same compound, the half-maximal inhibitory concentration (IC50) in assay [2] worked out at 36 nM.

As for `CCCCOc1nsnc1C1CC2CCC1NC2` (single isomer, unassigned) [Compound 4, ENDO 2-aza-6-(4-butyloxy-1,2,5-thiadiaz-3-yl)-bicyclo[2.2.2]octane], the pIC50 in assay [1] is 8.38; in assay [2], 7.77.

`CCCSc1nsnc1C1CC2CCC1NC2` (stereo not drawn) [Compound 11, ENDO 2-Aza-6-(4-propylthio-1,2,5-thiadiaz-3-yl)bicyclo[2.2.2]octane]: the pIC50 was 8.39 in assay [1] and 7.89 in assay [2].

`CCCCCSc1nsnc1C1CC2CCC1NC2` (stereo not drawn) [Compound 16, EXO 2-aza-6-(4-pentylthio-1,2,5-thiadiaz-3-yl)-bicyclo[2.2.2]octane]: in assay [1], the pIC50 is 7.08. The 50% inhibitory concentration (IC50) in assay [2] was 45 nM.

Turning to `FC(F)(F)c1ccc(CSc2nsnc2C2CC3CCC2NC3)cc1` (stereo not drawn) [Compound 22, EXO 2-Aza-6-(4-(((4-trifluoromethyl)phenyl)methylthio)-1,2,5-thiadiaz-3-yl)-bicyclo[2.2.2]octane], the pIC50 in assay [2] was 6.35.

(Values after patent publication EP0776896A1, “Heterocyclic compounds and their use” (priority 1995, dated 1997).)
